Data published in patent US20260325500A1, “METHODS AND COMPOSITIONS FOR TREATING ACUTE STRESS DISORDER” (BioXcel Therapeutics, Inc., priority 2022, published 2026).
Entries after “also recorded” stand apart in the source; their conditions may differ. Where a name gives a salt, the structure may show the parent alone.

What was measured:
[1] = system: rat forced swim test model (depressive-like behavior); experiment: Forced swim test in dark phase (Example 4); assay type: in vivo, Sprague Dawley rats; settings: i.m.
Excerpt: Animal groups: Male Sprague Dawley (SD) rats (8-10 weeks old) were grouped housed 2 per cage in standard animal cages with facilities for pelleted food and drinking water in polycarbonate bottle with stainless steel sipper tubes. During the experimental period, animals were housed in a single experimental room. Rats were distributed in 7 different experimental groups with 9-12 rats per group as illustrated in Table 8. Animals were distributed to different groups based on body weight data. Each experimental group was also coded so that the experimenter became unaware of the true experimental group at the time FST trial.
Animals were housed in an environment-controlled room at 22±3° C. and relative humidity of 30 to 70 percent. During the study, 12/12 light/dark cycles were maintained. Lights of the acclimatization area were switched off at 06:00 PM. All experiments were carried out at ambient temperature under dark phase of lighting (between 06:00 PM to 06:00 AM). Adequate fresh air supply of 12-15 air changes/hour was maintained in the experimental room. The maximum and minimum temperature and relative humidity in the experimental rooms was recorded once daily. The relative humidity in the experimental room was calculated daily from dry and wet bulb temperature recordings.
Swim 1 was carried out between 18:30 to 21:30.
Swim 2 was carried out between 19:30 to 21:30. Animals were administered test compounds from 18:30 onwards in staggered manner 60 minutes before FST 2.
Forced swim test was carried out in dark phase
On Day 1, animals were subjected to forced swim test training for 15 minutes (Swim 1) and on Day 2, Swim 2 was carried out post treatment.
On day 2 animals were dosed with respective treatment 60 min prior to performing FST.
Forced swim test (Swim 2) was scored manually with no video recording.
Forced swim test (FST), was used to study the depressive-like behavior in rodents. The test was carried out in transparent cylindrical glass containers measuring 46 cm in height and 20 cm in diameter.
There were 2 swim sessions, 24 h apart. The first session, Swim 1 was the pretest/training stage (15 min) and the second session, Swim 2, was the test stage (8 min).
In swim 2, first 1-minute data was excluded from analysis and rest 7 minutes data was considered. In 7 minutes, data, it was divided 5 minutes and 2 minute.
Twenty-four hours after the start of Swim 1, the test swim (Swim 2) was carried out.
Rat was placed in the water-filled cylinder for 8 min (Swim 2).
The duration of time spent immobile, swimming, and climbing was observed by an observer blind to the treatment group.
Immobility period: A rat was judged to be immobile when it remained floating in the water without struggling and was making only those movements necessary to keep its head above water.
Statistical analysis: One Way ANOVA, Dunnet's multiple comparison test was applied with respect to vehicle saline and Tukey's multiple comparison test was applied to compare the data in between the groups using GraphPad Prism version 9 software.

[2] = system: motor activity (locomotion) and sedation behavior of male Swiss albino mice; experiment: Open field test, motor activity (locomotion) and sedation (Example 7); assay type: in vivo; settings: i.p.
Procedure: Rationale: The spontaneous locomotor activity in terms of total distance traveled is measured in open field test. Comparatively lower distance traveled would indicate either less motor activity or sedation.
Animal groups: Swiss albino male mice (6-7 weeks old; 25-40 g weight) were distributed in 10 different experimental groups with 12 […] per group as illustrated in Table
Study drugs: The test substances (Dexmedetomidine hydrochloride and latrepirdine dihydrochloride hydrate) were dissolved in 0.9% normal saline which served as the vehicle.
Study design and dosing: Mice were brought to the laboratory and allowed to acclimatize to the environment for at least 7 days. The open field test was done in lighting conditions of 40 lux light. The mice were dosed as per the grouping in Table 10. After a post dose interval of 60 minutes, 4 mice from a group were placed in the open field and the movement was tracked for a period of 30 minutes. Once the trial was over the mice were removed from the open field and the arena was cleaned. Following this, next set of 4 mice were placed in the arena and tracked.
Statistical analysis: The distance travelled for a period of 30 minutes was analyzed in bins of 5 minutes and was compared with that of the vehicle group using one-way ANOVA followed by Dunnett's test. All statistical analyses were performed using Graph pad prism software package (Version 7 or Higher) and p value below 0.05 was considered as significant.

[3] = system: Yohimbine-induced noradrenergic mediated hyperarousal in Wistar rats; experiment: Elevated plus maze, yohimbine-induced noradrenergic mediated hyperarousal (Example 2); assay type: in vivo; settings: 10 mg/kg, i.m., 60 min prior; yohimbine 2.5 mg/kg i.p.
Excerpt: Background: Yohimbine is an alpha 2-adrenergic receptor antagonist reported to trigger panic attacks in healthy volunteers and to exacerbate symptoms in patients with panic disorder (Charney et al., 1992 Acta Psychiatr Scand., Vol. 86 (4): 273-282). Peripheral administration of Yohimbine causes noradrenergic mediated hyperarousal in rats as assessed by the EPM paradigm.
Rationale: The drug yohimbine is a natural product used to test a specific pathway, noradrenergic-mediated hyper-arousal. It is well established that yohimbine is an alpha2-adrenergic receptor antagonist and activates the locus coeruleus (LC) and increases noradrenergic signaling (the opposite of alpha2-adrenergic agonists like dexmedetomidine and clonidine). Increased LC activity and noradrenergic signaling makes animals anxious and agitated which can be measured by using the elevated plus maze. In the elevated plus maze, rodents were in the closed arms and explored the open arms depending on their anxiety and agitation (rats and mice normally explore their environments extensively when calm). […] This behavior is correlated to increased level of anxiety caused by noradrenergic mediated hyperarousal.
Animal groups: Male: Wistar rats were used in this study and were randomly divided to different experimental groups (12 animals per group).
Study drugs: Four test drugs with different mechanisms of action linked to agitation were chosen to find drugs that are effective in reducing yohimbine-induced agitation: (1) Fluvoxamine (selective serotonin reuptake inhibitor) (2) Dextromethorphan (modulator of NMDA signals) (3) Diazepam (modulator of gamma-aminobutyric acid (GABA) as a positive control) and (4) Latrepirdine (complex pharmacology).
The test drugs were procured from Sigma or Tocris. dextromethorphan from Sigma Aldrich, Cat No. D9684; latrepirdine from Sigma Aldrich, Cat No. D6196 or Tocris Cat No. 3201 diazepam and fluvoxamine Sigma Aldrich, Cat No. F2802 or Tocris, Cat No. 1033. All these test drugs were formulated in sufficient quantity in 0.9% saline except for fluvoxamine, which was formulated in 30% ethanol in 0.9% saline.
Apparatus: Elevated Plus Maze (EPM) was used (FIG. 1). The maze consisted of two closed arms and two open arms forming a cross, with a square center platform. All visible surfaces were made of black acrylic. Each arm of the maze was placed on a support column above the floor. Antistatic black vinyl curtains used for surrounding the EPM to make an enclosure.
Study design and dosing: Yohimbine was administered by intraperitoneal injection (i.p.) at a dose of 2.5 mg/kg (30 minutes prior to study) to induce agitation and the effects were assessed 30 minutes after yohimbine injection by measuring the number of open arm entries and exploration time in the EPM. The test drugs fluvoxamine, dextromethorphan and latrepirdine dihydrochloride hydrate were administered through intramuscular route and, diazepam through intraperitoneal route into the hindleg thigh muscle of rats (60 minutes prior to study; 30 minutes prior to yohimbine administration). Diazepam was injected 30 minutes intraperitonially prior to the assay i.e. along with yohimbine administration. The study design is illustrated in FIG. 2 and table 5.
After the test drug administration, the rat was placed on the platform opposite a closed arm. The number of entries and the time spent in each arm were recorded during a 5 min period. The animal was considered as entered in arm when it placed its four paws into the arm.
Statistical analysis: Analysis of variance (ANOVA) was performed on the result data. Fisher's PLSD was used for pairwise comparisons and p value≤0.05 was considered significant.

Structure (SMILES) | climbing time ([1]; 1 μg/kg, versus vehicle saline) | increase in swimming time ([1]; 1 μg/kg, versus vehicle saline) | swimming time ([1]; 5 μg/kg) | immobility time ([1]; 1 and 5 μg/kg, versus vehicle saline) | distance traveled ([2]; 4 μg/kg, 10 μg/kg and 20 μg/kg) | distance traveled ([2]; 30 μg/kg) | reduction of noradrenergic mediated hyperarousal (open arm entries and time spent) [3]
Cc1cccc([C@H](C)c2cnc[nH]2)c1C [dexmedetomidine hydrochloride] | significantly increased | ~ 1.6% | significantly increased | significantly decreased | did not show any significant reduction in distance traveled | significant reduction in distance traveled | 
COCCCC/C(=N\OCCN)c1ccc(C(F)(F)F)cc1 [fluvoxamine] |  |  |  |  |  |  | ineffective; also recorded: no effect
COc1ccc2c(c1)[C@]13CCCC[C@@H]1[C@H](C2)N(C)CC3 [dextromethorphan] |  |  |  |  |  |  | ineffective; also recorded: no effect
